One assay deals with KRAS G12D (Homo sapiens, UniProt P01116, G12D). The experiment in a line: biochemical.
The next assay concerns the target KRAS G12V (Homo sapiens, UniProt P01116, G12V). The experiment in a line: biochemical.
In another assay the test system is AGS (G12D). The experiment in a line: Cell proliferation assay (CellTiter-Glo, 72 hours), AGS. It is filed as cell-based. As to conditions: 72 h, 384-well, CellTiter-Glo 2.0. On the procedure: (§1) Two thousand KRAS mutant cells per well were seeded in 384-well white plate and then treated with indicated compounds for 72 hours at 37° C. and 5% CO2. Cell proliferation was measured using CellTiter-Glo 2.0 luciferase-based ATP detection assay (Promega, Madison, WI) following the manufacturer's protocol. IC50 values were determined using Prism software (GraphPad Software, San Diego, CA).
A general note: In ATP-based viability assays light output follows the ATP content of the culture.

The next assay relates to GP2D (KRAS G12D). The experiment in a line: Cell proliferation assay (CellTiter-Glo, 72 hours), GP2D. It is filed as cell-based. The settings on record: GP2d, 72 h, 384-well, CellTiter-Glo 2.0. On the procedure:
as §1

Another assay has as its system SW620 (KRAS G12V). The experiment in a line: Cell proliferation assay (CellTiter-Glo, 72 hours), SW620. It is filed as cell-based. As to conditions: Homo sapiens, SW-620, 72 h, 384-well, CellTiter-Glo 2.0. Here is the method:
as §1

Sequence of KRAS G12V (P01116 1-188 isoform P01116-2 G12V): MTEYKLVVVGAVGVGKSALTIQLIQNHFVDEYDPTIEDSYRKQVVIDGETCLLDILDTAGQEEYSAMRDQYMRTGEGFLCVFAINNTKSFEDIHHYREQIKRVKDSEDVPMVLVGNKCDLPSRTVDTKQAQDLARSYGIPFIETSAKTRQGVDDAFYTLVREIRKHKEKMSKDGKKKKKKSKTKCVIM
Sequence of KRAS G12D (P01116 1-188 isoform P01116-2 G12D): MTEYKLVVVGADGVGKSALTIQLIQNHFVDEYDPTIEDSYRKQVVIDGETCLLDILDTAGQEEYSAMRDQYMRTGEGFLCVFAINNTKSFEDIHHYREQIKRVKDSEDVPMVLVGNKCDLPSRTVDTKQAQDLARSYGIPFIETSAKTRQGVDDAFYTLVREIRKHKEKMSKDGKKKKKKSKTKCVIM

For the compound `C#Cc1c(F)ccc2cc(O)cc(-c3nc4c5c(nc(OC[C@@]67CCCN6C[C@H](F)C7)nc5c3F)N(Cc3ccccc3)CCC4)c12` [Example 112, 4-[13-benzyl-6-fluoro-3-[[(2R,8S)-2-fluoro-1,2,3,5,6,7-hexahydropyrrolizin-8-yl]methoxy]-2,4,8,13-tetrazatricyclo [7.4.1.05,14]tetradeca-1,3,5,7,9 (14)-pentaen-7-yl]-5-ethynyl-6-fluoro-naphthalen-2-ol], the IC50 (usually the concentration that inhibits the measured activity by half) was 321 nM on KRAS G12D, 40.1 nM against KRAS G12V, more than 3000 nM in the assay on AGS (G12D) and more than 3000 nM with GP2D (KRAS G12D).
Take `CCc1c(F)ccc2cc(O)cc(-c3nc4c5c(nc(OC[C@@]67CCCN6C[C@H](F)C7)nc5c3F)N(C)[C@@H](CC)CO4)c12` [Example 99]: the IC50 against KRAS G12D was 0.85 nM; with SW620 (KRAS G12V) it was 96.8 nM; against KRAS G12V, 1.02 nM; in the assay on AGS (G12D), 86.3 nM; in the assay on GP2D (KRAS G12D), 22.4 nM.
Regarding `C#Cc1c(F)ccc2cc(O)cc(-c3nc4c5c(nc(OC[C@@]67CCCN6C[C@H](F)C7)nc5c3F)N3CC(C(N)=O)CCC3CO4)c12` (stereo partly drawn) [Example 110, 5-(8-ethynyl-7-fluoro-3-hydroxynaphthalen-1-yl)-4-fluoro-2-{[(2R,7aS)-2-fluorotetrahydro-1H-pyrrolizin-7a(5H)-yl]methoxy}-8,8a,9,10,11,12-hexahydro-7-oxa-1,3,6,12a-tetraazabenzo[4,5]cyclohepta[1,2,3-de]naphthalene-11-carboxamide], the IC50 against KRAS G12D was more than 10000 nM; in the assay with SW620 (KRAS G12V), more than 3000 nM; at KRAS G12V, more than 10000 nM; with AGS (G12D), more than 3000 nM; in the assay on GP2D (KRAS G12D), more than 3000 nM.
As to `CCc1c(F)ccc2cc(O)cc(-c3nc4c5c(nc(OC[C@@]67CCCN6C[C@H](F)C7)nc5c3F)N3CCC[C@](C)(O)[C@@H]3CO4)c12` [Example 114], the IC50 at KRAS G12D was 929 nM; against KRAS G12V, 1200 nM; with AGS (G12D), more than 3000 nM; in the assay on GP2D (KRAS G12D), more than 3000 nM.
With `CCc1c(F)ccc2cc(O)cc(-c3nc4c5c(nc(OC[C@@]67CCCN6C[C@H](F)C7)nc5c3F)N3CCC[C@@](C)(O)[C@H]3CO4)c12` [compound 3, (8aR,9R)-5-(8-ethyl-7-fluoro-3-hydroxynaphthalen-1-yl)-4-fluoro-2-{[(2R,7aS)-2-fluorotetrahydro-1H-pyrrolizin-7a(5H)-yl]methoxy}-9-methyl-8,8a,9,10,11,12-hexahydro-7-oxa-1,3,6,12a-tetraazabenzo[4,5]cyclohepta[1,2,3-de]naphthalen-9-ol], the IC50 on KRAS G12D turned out to be 1.66 nM; against KRAS G12V, 1.85 nM; in the assay with AGS (G12D) it was 57.5 nM; in the assay on GP2D (KRAS G12D), 15.5 nM.
Regarding `CCc1c(F)ccc2cc(O)cc(-c3nc4c5c(nc(OC[C@@]67CCCN6C[C@H](F)C7)nc5c3F)N3CCCC[C@H]3C(C)O4)c12` (stereo partly drawn) [Example 75, 5-ethyl-6-fluoro-4-((5aS)-1-fluoro-11-(((2R,7aS)-2-fluorotetrahydro-1H-pyrrolizin-7a(5H)-yl)methoxy)-5-methyl-5,5a,6,7,8,9-hexahydro-4-oxa-3,9a, 10,12-tetraazabenzo[4,5]cyclohepta[1,2,3-de]naphthalen-2-yl)naphthalen-2-ol], the IC50 against KRAS G12D is 1.76 nM; in the assay on SW620 (KRAS G12V), 702 nM; against KRAS G12V it was 1.6 nM; in the assay with AGS (G12D) it was 1620 nM; with GP2D (KRAS G12D), 349 nM.
For `CC[C@H]1COc2nc(-c3cc(O)cc4ccc(F)c(F)c34)c(F)c3nc(OC[C@@]45CCCN4C[C@H](F)C5)nc(c23)N1C` [Example 115, 4-[(9S)-9-ethyl-4-fluoro-2-{[(2R,7aS)-2-fluorotetrahydro-1H-pyrrolizin-7a(5H)-yl]methoxy}-10-methyl-9,10-dihydro-8H-7-oxa-1,3,6,10-tetraazacyclohepta[1,2,3-de]naphthalen-5-yl]-5,6-difluoronaphthalen-2-ol], the IC50 on KRAS G12D came out at 2.61 nM; against KRAS G12V, 2.4 nM; with AGS (G12D), 352 nM; in the assay on GP2D (KRAS G12D) it was 106 nM.
For `CC[C@H]1COc2nc(-c3cccc4sc(N)c(C#N)c34)c(F)c3nc(OC[C@@]45CCCN4C[C@H](F)C5)nc(c23)N1C` [Example 116, 2-amino-4-[(9S)-9-ethyl-4-fluoro-2-{[(2R,7aS)-2-fluorotetrahydro-1H-pyrrolizin-7a(5H)-yl]methoxy}-10-methyl-9,10-dihydro-8H-7-oxa-1,3,6,10-tetraazacyclohepta[1,2,3-de]naphthalen-5-yl]-1-benzothiophene-3-carbonitrile], in that order: 14.2 nM, 6.41 nM, more than 3000 nM and 760 nM.
With `CCc1c(F)ccc2cc(O)cc(-c3nc4c5c(nc(OC[C@@]67CCCN6C[C@H](F)C7)nc5c3F)N(C)[C@@H](C)CO4)c12` [Example 123, 5-ethyl-6-fluoro-4-[(9S)-4-fluoro-2-{[(2R,7aS)-2-fluorotetrahydro-1H-pyrrolizin-7a(5H)-yl]methoxy}-9,10-dimethyl-9,10-dihydro-8H-7-oxa-1,3,6,10-tetraazacyclohepta[1,2,3-de]naphthalen-5-yl]naphthalen-2-ol], the IC50 in the assay with SW620 (KRAS G12V) is 150 nM; with AGS (G12D), 375 nM; in the assay on GP2D (KRAS G12D) it was 40.5 nM.
In the same order, the values of `C#Cc1c(F)ccc2cc(O)cc(-c3nc4c5c(nc(OC[C@@]67CCCN6C[C@H](F)C7)nc5c3F)N3C=CCC[C@H]3CO4)c12` [Example 107, 5-ethynyl-6-fluoro-4-[(7S)-13-fluoro-16-[[(2R,8S)-2-fluoro-1,2,3,5,6,7-hexahydropyrrolizin-8-yl]methoxy]-9-oxa-2,11,15,17-tetrazatetracyclo [8.7.1.0^2,7.0^14,18]octadeca-1 (17),3,10 (18),11,13,15-hexaen-12-yl]naphthalen-2-ol] are 1040 nM, 1130 nM and 749 nM.
For `C#Cc1c(F)ccc2cc(O)cc(-c3nc4c5c(nc(OC[C@@]67CCCN6C[C@H](F)C7)nc5c3F)N(Cc3ccccc3)[C@H](CO)CO4)c12` [Example 81, 4-[(9R)-10-benzyl-4-fluoro-2-{[(2R,7aS)-2-fluorotetrahydro-1H-pyrrolizin-7a(5H)-yl]methoxy}-9-(hydroxymethyl)-9,10-dihydro-8H-7-oxa-1,3,6,10-tetraazacyclohepta[1,2,3-de]naphthalen-5-yl]-5-ethynyl-6-fluoronaphthalen-2-ol], in that order: more than 3000 nM, more than 3000 nM and more than 3000 nM.
For `C#Cc1c(F)ccc2cc(O)cc(-c3nc4c5c(nc(OC[C@@]67CCCN6C[C@H](O)C7)nc5c3F)N3CCCC[C@H]3CO4)c12` [Example 97, (2R,7aS)-7a-({[(8aS)-5-(8-ethynyl-7-fluoro-3-hydroxynaphthalen-1-yl)-4-fluoro-8,8a,9,10,11,12-hexahydro-7-oxa-1,3,6,12a-tetraazabenzo[4,5]cyclohepta[1,2,3-de]naphthalen-2-yl]oxy}methyl)hexahydro-1H-pyrrolizin-2-ol], in that order: 1180 nM, 385 nM and 916 nM.
